Data from patent publication US20250176550A1, “HERBICIDE COMPOSITION OF URACIL COMPOUND CONTAINING CARBOXYLATE FRAGMENT AND THE USE THEREOF” (Jiangsu Flag Chemical Industry Co., Ltd., priority 2022, published 2025).
Where two headings read alike, the source gives them in different places.

What was measured:
Assay in all cases: Indoor virulence and combined effect, greenhouse pot test, post-emergence stem and leaf spray, fresh weight inhibition
Type in all cases: in vivo
[1] = test system: lolium multiflorum
Procedure: (§1) The active ingredients A and B are respectively screened and an indoor combined effect of the composition on weeds was evaluated by an indoor test and a field test, to determine a combined effect of the composition on weeds.
(§2) Quantitative seeds of Poaceae weeds (echinochloa crusgalli, Digitaria sanguinalis, setaria viridis, Eleusine indica, avena fatua, alopecurus japonicus, alopecurus aequalis, Lolium multiflorum) and broadleaf weeds (eclipta prostrata, rorippa dubia, Abutilon theophrasti, conyza canadensis, veronica persica, myosoton aquaticum, polygonum lapathifolium, galium aparine var. tenerum, alisma plantago-aquatica, geranium carolinianum) were sown in paper cup containing nutrient soil with a diameter of 7 cm, covered with soil for 1 cm after sowing. After pressing and watering, they were cultured in a greenhouse according to a conventional method. Poaceae weeds grew to 3˜4 leaf stage, broad-leaved weeds grew to 4˜6 leaf stage, spraying treatment to both stem and leaf was performed; and pre-seedling soil spray treatment was performed 24 hours after sowing. Following an experimental design dosage, a WP-2000 walking spray tower (spindle speed 96 mm/r, spray height 200 mm, effective spray amplitude of nozzle 350 mm, nozzle flow rate 390 mL/min, nozzle walking speed 210 mm/s) was used for the spray treatment. The experiment was repeated three times. After being treated, a sample material is placed in an operation hall, and after the drug solution is naturally dried out, the sample material is placed in a greenhouse and managed according to the conventional method. A reaction of weeds to the drug agent is observed and recorded, and a regularly visual check of a control effect of the drug agent on weeds was performed after the treatment.
(§3) All of original drugs were using acetone as a solvent, being diluted with 0.1 wt % emulsifier of Tween-80 aqueous solution, and being diluted right before using.
(§4) When determining a ratio or content of the active ingredient A and the active ingredient B, it should be measured from characteristics of action of both agents and virulence thereof, as well as the main purpose of use of a formula shall also be considered in. In the present study, on a basis of previous pre-test, the dosages of the active ingredient A and the active ingredient B were set, when being used alone and mixed, as shown in the following table. Water containing no agent, but containing the same solvent and emulsifier was used as a blank control.
(§5) Repeat 4 times for each treatment, 3 pots per treatment each time and 30 weed seeds were sown for each pot.
(§6) Adopting an absolute number survey method, using a blade to cut the whole seedling of surviving weed along soil surface, and weighting the fresh weight of the weed with an analytical balance. For weeds that had died, counting the fresh weight as zero.
(§7) Survey period and frequency: 21 days after the treatment, total 1 investigation.
(§8) The theoretical fresh weight inhibition rate (E0-Expected Efficacy=[…]) of each treatment combination was calculated by Gowing method, and then compared with the measured inhibition rate (E-Observed Efficacy) to evaluate the combined effect type of both on weeds. When E-E0 value was greater than 10%, it was counted as a synergistic effect, less than −10%, it was counted as an antagonistic effect, and between −10%˜10%, it was counted as an additive effect. According to a plurality of factors including an actual control efficacy, a herbicide characteristic, a formula balance and other factors to determine the best ratio. In the formula, X is the fresh weight inhibition rate of the ingredient A at a dosage of P; Y is the fresh weight inhibition rate of the active ingredient B at a dosage of Q.
(§9) The statistical results are shown in Table 1 to Table 44 below, except for those marked clearly as “pre-emergence treatment”, all others are “post-emergence treatment”. […]

[2] = test system: eclipta prostrata; settings: Table 12
Procedure: as §1, §2, §3, §4, §5, §6, §7, §8, §9

[3] = test system: echinochloa crusgalli; settings: for inhibition at 5 g/ha: 5 g a.i./ha; for inhibition at 10 g/ha: 10 g a.i./ha
Procedure: as §1
as §2, with “Following an experimental design dosage, a WP-2000 walking spray tower (spindle speed 96 mm/r, spray height 200 mm, effective spray amplitude of nozzle 350 mm, nozzle flow rate 390 mL/min, nozzle walking speed 210 mm/s) was used for the spray treatment.” left out, “method.” for “method. A reaction of weeds to the drug agent is observed and recorded, and a regularly visual check of a control effect of the drug agent on weeds was performed after the treatment.”
as §3, §4, §5, §6, §7
When E-E0 value was greater than 10%, it was counted as a synergistic effect, less than −10%, it was counted as an antagonistic effect, and between −10%˜10%, it was counted as an additive effect. […] In the formula, X is the fresh weight inhibition rate of the ingredient A at a dosage of P; Y is the fresh weight inhibition rate of the active ingredient B at a dosage of Q.

[4] = test system: veronica persica
Procedure: as §1, §2, §3, §4, §5, §6, §7, §8, §9

[5] = Echinochloa crus-galli, 504 h, Table 4, post-emergence, 21 days after treatment, read-out: Fresh weight inhibition rate %, B single agent
[6] = Echinochloa crus-galli, 504 h, Table 2, post-emergence, 21 days after treatment, read-out: Fresh weight inhibition rate %, B single agent

In the case of `COC(=O)CCNC(=O)C(C)Sc1cc(-n2c(=O)cc(C(F)(F)F)n(C)c2=O)c(F)cc1Cl` (centres unmarked) [tiafenacil], the “Fresh weight inhibition rate %, B single agent” value (from here on “Fresh weight inhibition rate %”) ([1]; Table 38, B 10 g a.i./ha) is reported as 8.27%, the “Fresh weight inhibition rate %” value ([1]; Table 38, B 15 g a.i./ha) is reported as 15.26% and the “Fresh weight inhibition rate %” value ([1]; Table 38, B 20 g a.i./ha) is reported as 22.42%.

For `CCOC(=O)COC(=O)c1cc(Oc2ccc(C(F)(F)F)cc2Cl)ccc1[N+](=O)[O-]` [fluoroglycofen-ethyl], the “Fresh weight inhibition rate %” value ([2]; B 8 g a.i./ha) was 11.99%, the “Fresh weight inhibition rate %” value ([2]; B 16 g a.i./ha) was 27.44% and the “Fresh weight inhibition rate %” value ([2]; B 20 g a.i./ha) was 42.03%.

In the case of broclozone, the “Fresh weight inhibition rate %” value ([3]; Table 44, B 50 g a.i./ha) is reported as 5.86%, the “Fresh weight inhibition rate %” value ([3]; Table 44, B 80 g a.i./ha) is reported as 16.30% and the “Fresh weight inhibition rate %” value ([3]; Table 44, B 120 g a.i./ha) is reported as 33.00%. The “Fresh weight inhibition rate %” value ([3]; Table 44, B 150 g a.i./ha) was 44.95%.

With `CCCCC(CC)COC(=O)COc1ccc(Cl)cc1Cl` [2,4-D-etexyl] the “Fresh weight inhibition rate %” value ([4]; Table 23, B 195 g a.i./ha) was 30.42%, the “Fresh weight inhibition rate %” value ([4]; Table 23, B 275 g a.i./ha) was 40.62% and the “Fresh weight inhibition rate %” value ([4]; Table 23, B 350 g a.i./ha) was 50.28%.

`N#Cc1cnn(-c2nn3c(c2Cl)CCCC3)c1NCC1CC1` [cyclopyranil] was tested, and the “Fresh weight inhibition rate %” value ([3]; Table 37, B 12.5 g a.i./ha) was 24.73%, the “Fresh weight inhibition rate %” value ([3]; Table 37, B 20 g a.i./ha) was 25.46% and the “Fresh weight inhibition rate %” value ([3]; Table 37, B 30 g a.i./ha) was 31.50%. The “Fresh weight inhibition rate %” value ([3]; Table 37, B 40 g a.i./ha) was 39.05%.

With `CP(=O)(O)CCC(N)C(=O)O` (centres unmarked) [glufosinate-ammonium] the “Fresh weight inhibition rate %” value ([1]; Table 19, B 120 g a.i./ha) was 2.63%, the “Fresh weight inhibition rate %” value ([1]; Table 19, B 210 g a.i./ha) was 12.20% and the “Fresh weight inhibition rate %” value ([1]; Table 19, B 300 g a.i./ha) was 27.99%. The “Fresh weight inhibition rate %” value ([1]; Table 19, B 400 g a.i./ha) was 54.64%.

With `CP(=O)(O)CC[C@H](N)C(=O)O.N` [glufosinate-P-ammonium] the “Fresh weight inhibition rate %” value ([1]; Table 20, B 200 g a.i./ha) was 8.61%, the “Fresh weight inhibition rate %” value ([1]; Table 20, B 300 g a.i./ha) was 74.40% and the “Fresh weight inhibition rate %” value ([1]; Table 20, B 350 g a.i./ha) was 78.23%. For the same compound, the “Fresh weight inhibition rate %” value ([1]; Table 20, B 400 g a.i./ha) was 83.04%.

With `COCc1cnc(C2=NC(C)(C(C)C)C(=O)N2)c(C(=O)[O-])c1.[Na+]` (centres unmarked) [imazamox-sodium] the “Fresh weight inhibition rate %” value ([3]; Table 3, 15 g a.i./ha, post-emergence, 21 days after treatment) was 2.52% and the “Fresh weight inhibition rate %” value ([3]; Table 3, 20 g a.i./ha, post-emergence, 21 days after treatment) was 13.41%.

For `Nc1c(Cl)c(Cl)nc(C(=O)O)c1Cl` [picloram-potassium, picloram], the “Fresh weight inhibition rate %” value ([4]; Table 26, B 450 g a.i./ha) was 42.89%, the “Fresh weight inhibition rate %” value ([4]; Table 26, B 525 g a.i./ha) was 47.46% and the “Fresh weight inhibition rate %” value ([4]; Table 26, B 600 g a.i./ha) was 50.25%. The “Fresh weight inhibition rate %” value ([4]; Table 26, B 600 g a.i./ha (row 2 + 600)) was 50.25%.

With `CC(C)N1C(=O)c2ccccc2NS1(=O)=O` [bentazone-sodium] the inhibition at 300 g/ha ([4]; Veronica persica, 504 h, Table 9, 300 g a.i./ha, post-emergence, 21 days after treatment, read-out: Fresh weight inhibition rate %, B single agent) was 30.5%, the inhibition at 450 g/ha ([4]; Veronica persica, 504 h, Table 9, 450 g a.i./ha, post-emergence, 21 days after treatment, read-out: Fresh weight inhibition rate %, B single agent) was 41.9% and the inhibition at 525 g/ha ([4]; Veronica persica, 504 h, Table 9, 525 g a.i./ha, post-emergence, 21 days after treatment, read-out: Fresh weight inhibition rate %, B single agent) was 53.3%.

`CNC.COc1c(Cl)ccc(Cl)c1C(=O)O` [dicamba-dimethylammonium] was tested, and the “Fresh weight inhibition rate %” value ([4]; Table 24, B 40 g a.i./ha) was 11.68%, the “Fresh weight inhibition rate %” value ([4]; Table 24, B 60 g a.i./ha) was 25.89% and the “Fresh weight inhibition rate %” value ([4]; Table 24, B 80 g a.i./ha) was 37.82%. For the same compound, the “Fresh weight inhibition rate %” value ([4]; Table 24, B 100 g a.i./ha) was 38.58%.

Compound `COc1cc(OC)nc(Oc2cccc(Oc3nc(OC)cc(OC)n3)c2C(=O)O)n1` [bispyribac-sodium] has an inhibition at 5 g/ha [3, 5] of 14.3%, an inhibition at 10 g/ha [3, 5] of 21.9% and an inhibition at 25 g/ha ([3]; Echinochloa crus-galli, 504 h, Table 4, 25 g a.i./ha, post-emergence, 21 days after treatment, read-out: Fresh weight inhibition rate %, B single agent) of 30.1%.

Compound `COc1cnc(OC)n2nc(NS(=O)(=O)c3c(OCC(F)F)cccc3C(F)(F)F)nc12` [penoxsulam] has an inhibition at 5 g/ha [3, 6] of 7.31% and an inhibition at 10 g/ha [3, 6] of 18.3%.

For `c1cc[n+]2c(c1)-c1cccc[n+]1CC2` [diquat], the “Fresh weight inhibition rate %” value ([1]; Table 27, B 300 g a.i./ha) was 31.27%, the “Fresh weight inhibition rate %” value ([1]; Table 27, B 400 g a.i./ha) was 36.44% and the “Fresh weight inhibition rate %” value ([1]; Table 27, B 495 g a.i./ha) was 41.37%.

`C=CCOC(=O)C(C)(C)OC(=O)c1cc(-n2c(=O)cc(C(F)(F)F)n(C)c2=O)ccc1Cl` [butafenacil] was tested, and the “Fresh weight inhibition rate %” value ([1]; Table 34, B 7.5 g a.i./ha) was 29.47%, the “Fresh weight inhibition rate %” value ([1]; Table 34, B 12.5 g a.i./ha) was 36.55% and the “Fresh weight inhibition rate %” value ([1]; Table 34, B 20 g a.i./ha) was 43.60%. For the same compound, the “Fresh weight inhibition rate %” value ([1]; Table 34, B 30 g a.i./ha) was 53.40%.

Compound `CC1(C)CON(Cc2ccccc2Cl)C1=O` [clomazone] has an inhibition at 12.5 g/ha ([3]; Echinochloa crus-galli, 504 h, Table 17, 12.5 g a.i./ha, post-emergence, 21 days after treatment, read-out: Fresh weight inhibition rate %, B single agent) of 8.42%, an inhibition at 20 g/ha ([3]; Echinochloa crus-galli, 504 h, Table 17, 20 g a.i./ha, post-emergence, 21 days after treatment, read-out: Fresh weight inhibition rate %, B single agent) of 7.51% and an inhibition at 45 g/ha ([3]; Echinochloa crus-galli, 504 h, Table 17, 45 g a.i./ha, post-emergence, 21 days after treatment, read-out: Fresh weight inhibition rate %, B single agent) of 10.9%.
